# Assay results: ChEMBL document CHEMBL1140642, “Human serum albumin binding assay based on displacement of a non selective fluorescent inhibitor” (Bioorg Med Chem Lett, 2007); call rule not given here
# Experiments:
# [1] = target: T1, Albumin (Homo sapiens, UniProt P02768); assay: Displacement of [C13]-methyl oleic acid from ibuprofen site of human serum albumin by NMR
# [2] = target: T1, Albumin; assay: Displacement of [C13]-methyl oleic acid from warfarin site of human serum albumin by NMR
# T1 sequence (P02768 whole entry): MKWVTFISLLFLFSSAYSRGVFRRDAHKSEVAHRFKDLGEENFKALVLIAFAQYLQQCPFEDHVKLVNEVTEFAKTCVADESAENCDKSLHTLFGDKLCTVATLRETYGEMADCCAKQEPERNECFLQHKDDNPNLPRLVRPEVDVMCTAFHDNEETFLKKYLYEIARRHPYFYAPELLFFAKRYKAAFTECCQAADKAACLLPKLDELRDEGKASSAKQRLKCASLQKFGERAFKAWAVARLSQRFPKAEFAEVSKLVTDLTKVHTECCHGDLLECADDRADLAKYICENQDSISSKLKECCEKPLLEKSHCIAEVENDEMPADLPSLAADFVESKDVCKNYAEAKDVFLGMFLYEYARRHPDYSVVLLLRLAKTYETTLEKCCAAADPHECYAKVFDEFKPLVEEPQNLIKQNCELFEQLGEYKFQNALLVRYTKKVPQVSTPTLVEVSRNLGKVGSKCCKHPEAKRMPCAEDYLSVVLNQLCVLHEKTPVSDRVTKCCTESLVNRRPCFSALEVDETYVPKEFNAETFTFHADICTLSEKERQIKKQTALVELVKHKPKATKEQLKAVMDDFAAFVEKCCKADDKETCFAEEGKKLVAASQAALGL
structure (smiles),measurement,setting,value
Cn1c(/C=C/c2ccc(C#N)cc2C(=O)O)cc2ccccc21,Activity,[1],Active
same,Activity,[2],Active
